These results are taken from publication PMC7221793, “Metabolism and Pharmacokinetics of SP-8356, a Novel (1S)-(−)-Verbenone Derivative, in Rats and Dogs and Its Implications in Humans” (Molecules, 2020).

Series [1] in a line: In vivo metabolite identification, pooled rat plasma (Q-TOF LC-MS/MS). As to conditions: i.v. SP-8356 20 mg/kg; for AUClast (%): % versus total AUClast of parent and all detected metabolites; for AUClast (AR∙h) × 10^2: AR = peak area ratio versus internal standard; for Tmax: male, SD, iv, time of highest AR. Here is the method:
(§1) Plasma samples from the i.v. administrations described in Section 4.2 and Section 4.3 were used in this study. Plasma samples pooled at each time point were subjected to sample preparation as described in Section 4.2. The prepared samples were analyzed by Agilent 6530 Q-TOF LC-MS/MS system equipped with dual AJS ESI ion source and Agilent 1200 series HPLC system as described below.
(§2) Chromatographic separation was achieved on an Agilent Eclipse C18 column (2.1 mm × 100 mm, 3.5 µm) by a gradient elution with a mobile phase consisting of 0.1 vol.% formic acid in water (A) and 0.1 vol.% formic acid in acetonitrile (B) at 50 °C: starting with 5 vol.% B for 2 min, ramping to 95 vol.% B over 1 min, maintaining for 3 min. The mobile phase flow rate was kept at 0.45 mL/min throughout the run. The sample injection volume was 5 µL. Ion source parameters were set as follows: capillary voltage, 3500 V; drying gas, 12 L/min and 300 °C; nebulizer gas, 30 psi; sheath gas, 12 L/min and 300 °C. Mass spectra were acquired in negative ion auto MS/MS mode (F, 135 V; CE, 25 eV) with full scan range of m/z (100–1000) and mass scan rate of 8 spectra/s. Metabolites were identified using Agilent MassHunter Metabolite ID software (version B.04.00) (Santa Clara, CA, USA). Chromatograms and mass spectra of the parent and identified metabolites were extracted using Agilent MassHunter Qualitative Analysis software (version B.05.00) (Santa Clara, CA, USA).

Series [2] can be described thus: In vivo metabolite identification, pooled dog plasma (Q-TOF LC-MS/MS). As to conditions: i.v. SP-8356 50 mg/kg; for AUClast (%): % versus total AUClast of parent and all detected metabolites; for AUClast (AR∙h) × 10^2: AR = peak area ratio versus internal standard; for Tmax: male, Beagle, iv, time of highest AR. Here is the method:
as §1, §2

The nature of series [3]: In vivo metabolite identification, pooled rat urine. As to conditions: rat pooled urine 0–24 h, single i.v. dose of SP-8356. Here is the method: Rat urine samples were collected from the animal studies approved by the IACUC of Korea University (Approval No.: KUIACUC-2017-124; Approval date: Jul. 29, 2017). SP-8356 dissolved in DMA/Cremophor EL/saline (5/10/85 vol.%) was dosed i.v. at 10 mg/kg (n = 5/dose group) to male SD rats (8 weeks old; (255–275) g; Koatech Inc., Gyeonggi, Republic of Korea) housed individually in metabolic cages. Urine samples were collected for ((0–4), (4–8) and (8–24)) h. Pooled urine samples were mixed with equal volume of acetonitrile containing HSDH (1 μg/mL) as IS, followed by filtration with a syringeless filter device (Mini-UniPrep™, PTFE filter media with polypropylene housing, 0.45 µm). The filtrate was analyzed by Agilent 6530 Q-TOF LC-MS/MS system equipped with dual AJS ESI ion source and Agilent 1200 series HPLC system, as follows.
Chromatographic separation was achieved on an Agilent Eclipse C18 column (2.1 mm × 100 mm, 3.5 µm) by a gradient elution with a mobile phase consisting of 0.1 vol.% formic acid in water (A) and 0.1 vol.% formic acid in acetonitrile (B) at 50 °C: starting with 5 vol.% B for 2 min, ramping to 95 vol.% B over 1 min, maintaining for 3 min. The mobile phase flow rate was kept at 0.45 mL/min throughout the run. The sample injection volume was 5 µL. […]

For orientation: Tmax means the time from dosing to the highest level. For the compound `CC1(C)[C@@H]2C[C@H]1C(/C=C/c1cc(O)c(O)c(O)c1)=CC2=O` [M3], in series [1], the “AUClast (%)” value is listed as 0.40%, the “AUClast (AR∙h) × 10^2” value was 0.55 (AR∙h) × 10^2 and the Tmax stood at 1.02 min. In series [2], the “AUClast (%)” value came out at 0.07%, the “AUClast (AR∙h) × 10^2” value is 2.7 (AR∙h) × 10^2 and the Tmax worked out at 4.98 min.

With `COc1cc(C=CC2=CC(=O)C3CC2C3(C)C)cc(OC2OC(C(=O)O)C(O)C(O)C2O)c1OC1OC(C(=O)O)C(O)C(O)C1O` (stereo not shown) [M5], in series [3], the “metabolites detected in urine” value was “detected”. Moreover, in series [1], the “AUClast (%)” value was 0.84%, the “AUClast (AR∙h) × 10^2” value is on record as 1.14 (AR∙h) × 10^2 and the Tmax turned out to be 15 min. In addition, in series [2], the “AUClast (%)” value stood at 3.05%, the “AUClast (AR∙h) × 10^2” value is 120.5 (AR∙h) × 10^2 and the Tmax came out at 60 min.
